Test results from paper PMC12217463, “Functional and structural analyses of amino acid sequence variation in PDC β-lactamase reveal different mechanistic pathways toward cefiderocol resistance in Pseudomonas aeruginosa” (Antimicrobial Agents and Chemotherapy, 2025).
≈ marks a conversion by molar mass, not a printed value.

Key:
[1] = molecular target: PDC L293P (Pseudomonas aeruginosa, UniProt P24735, L320P); assay: Steady-state kinetics of purified β-lactamase; details: for Km / kcat: PDC L293P, 10 mM PBS, pH 7.4, room temperature; for Km: antibiotics: determined as Ki app with nitrocefin as reporter substrate; for kcat: direct hydrolysis at substrate concentration at least three times the Km; for Ratio for PDC L293P/PDC-1: ratio of kcat/Km (fold change in catalytic efficiency)
[2] = molecular target: PDC E219K (Pseudomonas aeruginosa, UniProt P24735, E247K); assay: Steady-state kinetics of purified β-lactamase; details: for increase in kcat values: PDC E219K relative to PDC-1; for Km / kcat: PDC E219K, 10 mM PBS, pH 7.4, room temperature; for Km: antibiotics: determined as Ki app with nitrocefin as reporter substrate; for kcat: direct hydrolysis at substrate concentration at least three times the Km; for Ratio for PDC E219K/PDC-1: ratio of kcat/Km (fold change in catalytic efficiency)
[3] = test system: PAO1 + blaPDC F121L + G220S; assay: MIC, broth microdilution; format: cell-based; details: Pseudomonas aeruginosa
[4] = test system: PAO1 + blaPDC E219K; assay: MIC, broth microdilution; format: cell-based; details: Pseudomonas aeruginosa
From the text: (§1) We took advantage of a previously constructed and characterized laboratory collection of recombinant P. aeruginosa PAO1 isolates expressing different blaPDC variants, but specifically enriched for this work with additional variants, following the previously described methodology ([17]). […] The final collection comprised 40 recombinant isolates (20 in PAO1 and 20 in PAO ΔpiuC) producing the wild-type PDC-1 variant from PAO1 and 19 derivatives carrying specific amino acid substitutions previously associated with the development of resistance to ceftazidime/avibactam, ceftolozane/tazobactam, or cefiderocol: T70I, F121L, P153L, G156D, A200T, G202S, ΔG202-E219, G214R, P215L, P215S, ΔP215-G222, D217N, E219K, E219G, E219D, S226ins, L293P, F121L + E219K, and F121L + G222S.
(§2) The MICs of ceftazidime, ceftazidime/avibactam, ceftolozane/tazobactam, cefepime, and cefiderocol were determined in triplicate, for all isolates, by reference broth microdilution assays. Avibactam and tazobactam were fixed at 4 mg/L. All assays were performed using cation-adjusted Mueller-Hinton broth (CAMHB), except for cefiderocol, which was determined in all cases using iron-depleted CAMHB, prepared according to CLSI M100 guidelines ([40]). EUCAST v.15.0 clinical breakpoints and guidelines (http://www.eucast.org/clinical_breakpoints/) were used for reference purposes. Reference strains Escherichia coli ATCC 25922, Klebsiella pneumoniae ATCC 700603, and P. aeruginosa ATCC 27853 were used as controls.

[5] = test system: PAO1 + blaPDC T70I; assay: MIC, broth microdilution; format: cell-based; details: Pseudomonas aeruginosa
From the text: as §1, §2

[6] = test system: PAO1 + blaPDC ∆P215-G222; assay: MIC, broth microdilution; format: cell-based; details: Pseudomonas aeruginosa, avibactam and tazobactam fixed at 4 mg/L, FDC in iron-depleted CAMHB
From the text: as §1, §2

[7] = test system: PAO1 + blaPDC G214R; assay: MIC, broth microdilution; format: cell-based; details: Pseudomonas aeruginosa
From the text: as §1, §2

[8] = test system: PAO1 + blaPDC P215S; assay: MIC, broth microdilution; format: cell-based; details: Pseudomonas aeruginosa
From the text: as §1, §2

[9] = test system: PAO1 + blaPDC P153L; assay: MIC, broth microdilution; format: cell-based; details: Pseudomonas aeruginosa
From the text: as §1, §2

[10] = test system: PAO1 + blaPDC L293P; assay: MIC, broth microdilution; format: cell-based; details: Pseudomonas aeruginosa
From the text: as §1, §2

[11] = test system: PAO1 + blaPDC F121L + E219K; assay: MIC, broth microdilution; format: cell-based; details: Pseudomonas aeruginosa
From the text: as §1, §2

[12] = test system: PAO1 + blaPDC D217N; assay: MIC, broth microdilution; format: cell-based; details: Pseudomonas aeruginosa
From the text: as §1, §2

[13] = test system: PAO1 + blaPDC E219D; assay: MIC, broth microdilution; format: cell-based; details: Pseudomonas aeruginosa
From the text: as §1, §2

[14] = test system: PAO1 + blaPDC P215L; assay: MIC, broth microdilution; format: cell-based; details: Pseudomonas aeruginosa
From the text: as §1, §2

[15] = test system: PAO1 + blaPDC F121L; assay: MIC, broth microdilution; format: cell-based; details: Pseudomonas aeruginosa
From the text: as §1, §2

[16] = test system: PAO1 + blaPDC A200T; assay: MIC, broth microdilution; format: cell-based; details: Pseudomonas aeruginosa
From the text: as §1, §2

[17] = test system: PAO1 + blaPDC ∆G202-E219; assay: MIC, broth microdilution; format: cell-based; details: Pseudomonas aeruginosa, avibactam and tazobactam fixed at 4 mg/L, FDC in iron-depleted CAMHB
From the text: as §1, §2

[18] = test system: PAO1; assay: MIC, broth microdilution; format: cell-based; details: Pseudomonas aeruginosa; PAO1 wild type, no plasmid-borne PDC; avibactam and tazobactam fixed at 4 mg/L; FDC in iron-depleted CAMHB
From the text: as §1, §2

[19] = test system: PAO1 + blaPDC-1 (WT); assay: MIC, broth microdilution; format: cell-based; details: Pseudomonas aeruginosa, avibactam and tazobactam fixed at 4 mg/L, FDC in iron-depleted CAMHB
From the text: as §1, §2

[20] = test system: PAO1 + blaPDC G156D; assay: MIC, broth microdilution; format: cell-based; details: Pseudomonas aeruginosa
From the text: as §1, §2

[21] = test system: PAO1 + blaPDC E219G; assay: MIC, broth microdilution; format: cell-based; details: Pseudomonas aeruginosa
From the text: as §1, §2

[22] = test system: PAO1 + blaPDC G202S; assay: MIC, broth microdilution; format: cell-based; details: Pseudomonas aeruginosa
From the text: as §1, §2

[23] = test system: PAO1 + blaPDC S226ins; assay: MIC, broth microdilution; format: cell-based; details: Pseudomonas aeruginosa, avibactam and tazobactam fixed at 4 mg/L, FDC in iron-depleted CAMHB
From the text: as §1, §2

[24] = molecular target: PDC-1 (WT) (Pseudomonas aeruginosa, UniProt P24735); assay: Steady-state kinetics of purified β-lactamase; details: for kcat: PDC-1 (WT), direct hydrolysis at substrate concentration at least three times the Km, 10 mM PBS, pH 7.4, room temperature; for Ratio: kcat/Km relative to PDC-1 (reference = 1)
[25] = test system: CO/N=C(\C(=O)N[C@@H]1C(=O)N2C(C(=O)[O-])=C(C[N+]3(C)CCCC3)CS[C@H]12)c1csc(N)n1; assay: purified protein, by the assay type; details: other: PDC-1 (WT), antibiotics: determined as Ki app with nitrocefin as reporter substrate, 10 mM PBS, pH 7.4, room temperature
[26] = test system: O=C(Cc1cccs1)N[C@@H]1C(=O)N2C(C(=O)O)=C(/C=C/c3ccc([N+](=O)[O-])cc3[N+](=O)[O-])CS[C@H]12; assay: purified protein, by the assay type; details: other: PDC-1 (WT), antibiotics: determined as Ki app with nitrocefin as reporter substrate, 10 mM PBS, pH 7.4, room temperature
[27] = test system: CC(C)(O/N=C(\C(=O)N[C@@H]1C(=O)N2C(C(=O)[O-])=C(C[n+]3ccccc3)CS[C@H]12)c1csc(N)n1)C(=O)O; assay: purified protein, by the assay type; details: other: PDC-1 (WT), antibiotics: determined as Ki app with nitrocefin as reporter substrate, 10 mM PBS, pH 7.4, room temperature
[28] = test system: CC(C)(O/N=C(\C(=O)N[C@@H]1C(=O)N2C(C(=O)[O-])=C(C[N+]3(CCNC(=O)c4ccc(O)c(O)c4Cl)CCCC3)CS[C@H]12)c1csc(N)n1)C(=O)O; assay: purified protein, by the assay type; details: other: PDC-1 (WT), antibiotics: determined as Ki app with nitrocefin as reporter substrate, 10 mM PBS, pH 7.4, room temperature
[29] = test system: Cn1c(N)c(NC(=O)NCCN)c[n+]1CC1=C(C(=O)O)N2C(=O)[C@@H](NC(=O)/C(=N\OC(C)(C)C(=O)[O-])c3nsc(N)n3)[C@H]2SC1; assay: purified protein, by the assay type; details: other: PDC-1 (WT), antibiotics: determined as Ki app with nitrocefin as reporter substrate, 10 mM PBS, pH 7.4, room temperature

Row | Compound | Km [1] | kcat [1] | Ratio for PDC L293P/PDC-1 [1] | increase in kcat values [2] | Km [2] | MIC [3] | MIC [4] | MIC [5] | MIC [6] | MIC [7] | MIC [8] | MIC [9] | MIC [10] | MIC [11] | MIC [12] | MIC [13] | MIC [14] | Ratio [24] | kcat [2] | Ratio for PDC E219K/PDC-1 [2] | other results
1 | CC(C)(O/N=C(\C(=O)N[C@@H]1C(=O)N2C(C(=O)[O-])=C(C[n+]3ccccc3)CS[C@H]12)c1csc(N)n1)C(=O)O [CAZ, ceftazidime] | 2.84 ± 0.31 µM | 0.0110 ± 0.0003 s⁻¹ | 8.67 | ≈ 267 fold | 292 ± 27.5 µM | 64 µg/mL (≈ 117 µM) | 256 µg/mL (≈ 468 µM) | 64 µg/mL (≈ 117 µM) | 256 µg/mL | 128 µg/mL (≈ 234 µM) | 64 µg/mL (≈ 117 µM) | 128 µg/mL (≈ 234 µM) | 64 µg/mL (≈ 117 µM) | > 256 µg/mL | 64 µg/mL (≈ 117 µM) | 64 µg/mL (≈ 117 µM) | 64 µg/mL (≈ 117 µM) | 1 | – | – | kcat ([2]; listed as Ceftazidime): 2.19 ± 0.17 s⁻¹; kcat ([2]; listed as ceftazidime): 2.19 s⁻¹; Ratio for PDC E219K/PDC-1 ([2]; listed as Ceftazidime): 15.56; Ratio for PDC E219K/PDC-1 ([2]; listed as ceftazidime): ≈ 16; MIC [15]: 64 µg/mL (≈ 117 µM); MIC [16]: 64 µg/mL (≈ 117 µM); MIC [17]: 64 µg/mL; MIC [18]: ≤ 1 µg/mL; MIC [19]: 32 µg/mL; MIC [20]: 64 µg/mL (≈ 117 µM); MIC [21]: 16 µg/mL (≈ 29.3 µM); MIC [22]: 64 µg/mL (≈ 117 µM); MIC [23]: 128 µg/mL; kcat [24]: 0.0082 s⁻¹
2 | CO/N=C(\C(=O)N[C@@H]1C(=O)N2C(C(=O)[O-])=C(C[N+]3(C)CCCC3)CS[C@H]12)c1csc(N)n1 [FEP, cefepime] | 4.58 ± 0.42 µM | 0.189 ± 0.007 s⁻¹ | 39.29 | – | 92.5 ± 26.3 µM | 32 µg/mL (≈ 66.6 µM) | 32 µg/mL (≈ 66.6 µM) | 16 µg/mL (≈ 33.3 µM) | 32 µg/mL | 16 µg/mL (≈ 33.3 µM) | 8 µg/mL (≈ 16.6 µM) | 32 µg/mL (≈ 66.6 µM) | 128 µg/mL (≈ 266 µM) | 32 µg/mL (≈ 66.6 µM) | 16 µg/mL (≈ 33.3 µM) | 8 µg/mL (≈ 16.6 µM) | 8 µg/mL (≈ 16.6 µM) | 1 | 0.25 ± 0.06 s⁻¹ | 2.57 | improvement in substrate binding affinity (Km decrease) ([1]; PDC L293P relative to PDC-1): ≈ 29 fold; MIC [15]: 16 µg/mL (≈ 33.3 µM); MIC [16]: 16 µg/mL (≈ 33.3 µM); MIC [17]: 8 µg/mL; MIC [18]: 2 µg/mL; MIC [19]: 16 µg/mL; MIC [20]: 4 µg/mL (≈ 8.32 µM); MIC [21]: 4 µg/mL (≈ 8.32 µM); MIC [22]: 16 µg/mL (≈ 33.3 µM); MIC [23]: 8 µg/mL
3 | PDC-1 (WT) (Pseudomonas aeruginosa PAO1) | – | – | – | – | – | – | – | – | – | – | – | – | – | – | – | – | – | – | – | – | Km [25]: 132.06 ± 23.69 µM; kcat [25]: 0.138 ± 0.009 s⁻¹; kcat/Km [25]: 1050 M⁻¹ s⁻¹; Km [26]: 13.98 ± 0.80 µM; kcat [26]: 21.9 ± 6.5 s⁻¹; kcat/Km [26]: 1.55e+06 ± 380000 M⁻¹ s⁻¹; Km [27]: 18.08 ± 0.88 µM; kcat [27]: 0.0082 ± 0.0007 s⁻¹; kcat/Km [27]: 450 M⁻¹ s⁻¹; Km [28]: 85.29 ± 9.48 µM; kcat [28]: 0.0036 ± 0.0007 s⁻¹; kcat/Km [28]: 40 M⁻¹ s⁻¹; Km [29]: 554.08 ± 3.00 µM; kcat [29]: 0.0715 ± 0.0006 s⁻¹; kcat/Km [29]: 130 M⁻¹ s⁻¹
4 | Cn1c(N)c(NC(=O)NCCN)c[n+]1CC1=C(C(=O)O)N2C(=O)[C@@H](NC(=O)/C(=N\OC(C)(C)C(=O)[O-])c3nsc(N)n3)[C@H]2SC1 [Ceftolozane, ceftolozane] | 108 ± 28.8 µM | 0.051 ± 0.007 s⁻¹ | 3.69 | ≈ 58 fold | 266 ± 43.5 µM | – | – | – | – | – | – | – | – | – | – | – | – | 1 | 4.18 ± 0.19 s⁻¹ | 123.08 | kcat ([2]; listed as ceftolozane): 4.18 s⁻¹; Ratio for PDC E219K/PDC-1 ([2]; listed as ceftolozane): ≈ 123; kcat [24]: 0.0715 s⁻¹
5 | O=C(Cc1cccs1)N[C@@H]1C(=O)N2C(C(=O)O)=C(/C=C/c3ccc([N+](=O)[O-])cc3[N+](=O)[O-])CS[C@H]12 [Nitrocefin, nitrocefin] | 6.71 ± 1.28 µM | 18.77 ± 4.37 s⁻¹ | 1.80 | – | 24.1 ± 4.01 µM | – | – | – | – | – | – | – | – | – | – | – | – | 1 | 4.41 ± 0.18 s⁻¹ | 0.12 | –
